# Where two headings read alike, the source gives them in different places.
# Assays:
# ENPP-1 ECD [1] = molecular target: T1, ENPP-1 ECD (Homo sapiens (Human), UniProt P22413); assay: Assay 2: inhibition of ENPP1 hydrolysis of 2′,3′-cGAMP (AMP-Glo, […] enzyme)
# Protocol: Assay 2: Compared to the conditions in Assay 1, this assay has a larger dynamic range and ensures the system is under steady-state conditions by reducing the enzyme concentration in the assay.
# Test compounds were plated in a 3× dilution scheme in a 384 well plate. […] AMP Detection solution (10 μL) was added to each well, the plate centrifuged and incubated for 60 min.
# ENPP-1 ECD [2] = molecular target: T1, ENPP-1 ECD; assay: Assay 1: inhibition of ENPP1 hydrolysis of 2′,3′-cGAMP (AMP-Glo, […] enzyme)
# Protocol: Assay 1: Test compounds were plated in a 3× dilution scheme in a 384 well plate. […] AMP Detection solution (100 μL) was added to each well, the plate centrifuged and incubated for 60 min.
# [3] = molecular target: ENPP1 on MDA-MB-231 cells (Homo sapiens (Human), UniProt P22413); assay: Assay 3: inhibition of ENPP1 hydrolysis of AMP p-nitrophenyl ester on MDA-MB-231 cells
# ENPP1 on MDA-MB-231 cells, sequence (P22413 whole entry): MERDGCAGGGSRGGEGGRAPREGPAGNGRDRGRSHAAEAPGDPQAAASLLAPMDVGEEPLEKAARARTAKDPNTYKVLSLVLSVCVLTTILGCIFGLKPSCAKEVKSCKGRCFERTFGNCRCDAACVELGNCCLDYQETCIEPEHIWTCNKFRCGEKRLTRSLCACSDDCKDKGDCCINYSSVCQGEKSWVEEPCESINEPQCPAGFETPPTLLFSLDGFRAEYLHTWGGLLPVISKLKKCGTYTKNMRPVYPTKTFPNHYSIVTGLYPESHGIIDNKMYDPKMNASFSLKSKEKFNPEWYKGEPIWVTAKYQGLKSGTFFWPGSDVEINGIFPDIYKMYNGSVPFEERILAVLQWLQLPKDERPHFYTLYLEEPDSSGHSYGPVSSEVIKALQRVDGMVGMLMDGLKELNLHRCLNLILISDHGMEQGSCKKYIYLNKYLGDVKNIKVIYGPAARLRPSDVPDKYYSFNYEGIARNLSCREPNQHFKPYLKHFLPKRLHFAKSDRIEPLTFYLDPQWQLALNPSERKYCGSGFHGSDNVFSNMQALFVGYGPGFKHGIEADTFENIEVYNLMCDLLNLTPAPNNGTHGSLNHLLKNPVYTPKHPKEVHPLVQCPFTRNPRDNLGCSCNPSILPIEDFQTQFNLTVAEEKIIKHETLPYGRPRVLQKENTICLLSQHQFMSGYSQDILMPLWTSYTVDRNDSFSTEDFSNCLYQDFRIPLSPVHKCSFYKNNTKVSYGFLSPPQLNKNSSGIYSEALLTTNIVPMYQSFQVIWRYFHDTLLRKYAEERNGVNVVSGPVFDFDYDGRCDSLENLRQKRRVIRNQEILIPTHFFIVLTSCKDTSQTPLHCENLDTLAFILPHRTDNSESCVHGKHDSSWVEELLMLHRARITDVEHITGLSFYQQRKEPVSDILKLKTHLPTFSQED
# [4] = Assay 2 (KI), ENPP1 hydrolysis of 2′,3′-cGAMP, AMP-Glo, […] ENPP-1, 24 μM cGAMP
# [5] = Assay 2 (KI), inhibition of ENPP1 hydrolysis of 2′,3′-cGAMP, no unit in Table 18 (Table 17 legend for this assay uses nM)
# [6] = Assay 1 (IC50), inhibition of ENPP1 hydrolysis of 2′,3′-cGAMP, no unit in Table 18 (Table 17 legend for this assay uses nM)
# [7] = KI in Assay 2, […] ENPP-1 ECD, 24 μM 2,3-cGAMP, pH 8.0, converted from IC50 via Cheng/Prusoff
# [8] = IC50 in Assay 1, […] ENPP-1 ECD, 24 μM 2,3-cGAMP, pH 8.0
# [9] = read-out: Assay 1 (IC50), ENPP1 hydrolysis of 2′,3′-cGAMP, AMP-Glo
# [10] = read-out: Assay 2 (KI), ENPP1 hydrolysis of 2′,3′-cGAMP, AMP-Glo, […] ENPP-1, 24 μM cGAMP
# [11] = read-out: Assay 2 (KI), inhibition of ENPP1 hydrolysis of 2′,3′-cGAMP, no unit in Table 18 (Table 17 legend for this assay uses nM)
# [12] = read-out: Assay 1 (IC50), inhibition of ENPP1 hydrolysis of 2′,3′-cGAMP, no unit in Table 18 (Table 17 legend for this assay uses nM)
# [13] = read-out: Assay 3 (KI, app), apparent KI from IC50 via Cheng/Prusoff, pNP-AMP […], MDA-MB-231 cells, pH 7.4, 37° C., 3 h, unit inferred
# [14] = Assay 1 (IC50), ENPP1 hydrolysis of 2′,3′-cGAMP, AMP-Glo
# T1 sequence (P22413 98-925): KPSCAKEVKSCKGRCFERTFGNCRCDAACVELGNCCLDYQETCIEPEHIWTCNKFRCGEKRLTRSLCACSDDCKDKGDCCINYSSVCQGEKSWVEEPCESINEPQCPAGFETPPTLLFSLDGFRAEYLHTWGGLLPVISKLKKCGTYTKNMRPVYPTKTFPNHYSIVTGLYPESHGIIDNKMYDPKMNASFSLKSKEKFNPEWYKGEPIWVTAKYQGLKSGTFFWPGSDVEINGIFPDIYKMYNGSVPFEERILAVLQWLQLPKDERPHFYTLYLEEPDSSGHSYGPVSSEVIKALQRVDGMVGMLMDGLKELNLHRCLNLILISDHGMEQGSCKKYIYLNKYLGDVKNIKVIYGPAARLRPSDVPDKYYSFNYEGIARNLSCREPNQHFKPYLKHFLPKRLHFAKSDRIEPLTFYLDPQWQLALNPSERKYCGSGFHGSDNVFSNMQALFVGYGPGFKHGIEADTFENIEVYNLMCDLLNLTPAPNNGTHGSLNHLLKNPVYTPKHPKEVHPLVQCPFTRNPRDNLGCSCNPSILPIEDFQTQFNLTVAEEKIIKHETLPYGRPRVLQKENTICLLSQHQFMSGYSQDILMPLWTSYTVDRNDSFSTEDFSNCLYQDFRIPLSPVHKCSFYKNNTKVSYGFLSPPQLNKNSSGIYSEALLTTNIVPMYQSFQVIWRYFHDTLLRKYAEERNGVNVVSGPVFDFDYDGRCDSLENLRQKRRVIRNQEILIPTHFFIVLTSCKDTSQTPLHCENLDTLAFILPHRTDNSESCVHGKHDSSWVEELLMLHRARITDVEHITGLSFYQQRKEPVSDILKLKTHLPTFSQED
Structure (SMILES),Ki (ENPP-1 ECD [1]; [4]),Ki (ENPP-1 ECD [1]; [5]),IC50 (ENPP-1 ECD [2]; [6]),Ki [3],Ki (ENPP-1 ECD [1]; [7]),IC50 (ENPP-1 ECD [2]; [8]),IC50 (ENPP-1 ECD [2]; [9]),Ki (ENPP-1 ECD [1]; [10]),Ki (ENPP-1 ECD [1]; [11]),IC50 (ENPP-1 ECD [2]; [12]),"Ki [3, 13]",IC50 (ENPP-1 ECD [2]; [14])
"COc1cc2ncnc(N3CCC4(CC3)CCN(S(C)(=N)=O)C4)c2cc1OC (stereo not drawn) [Compound 54, [8-(6,7-dimethoxyquinazolin-4-yl)-2,8-diazaspiro[4.5]decan-2-yl](imino)methyl-λ^6-sulfanone]",< 3 nM,0.014 nM,0.71 nM,0.88 nM,,,,,,,,
COc1cc2ncc(C#N)c(N3CCC4(CC3)CCN(S(N)(=O)=O)C4)c2cc1F [reference compound],,,,24 nM,0.47 nM,2.9 nM,,,,,,
"COc1cc2ncnc(N3CCC(CCS(C)(=N)=O)CC3)c2cc1OC (stereo not drawn) [Compound 8, (2-(1-(6,7-dimethoxyquinazolin-4-yl)piperidin-4-yl)ethyl)(imino)(methyl)-λ^6-sulfanone]",< 3 nM,0.69 nM,4.1 nM,27 nM,,6.9 nM,< 10 nM,,,,,
COc1cc2nccc(Oc3ccc(S(N)(=O)=O)cc3)c2cc1OC [reference compound],,,,380 nM,32 nM,190 nM,,,,,,
"COc1cc2ncc(C#N)c(N3CCC(CCS(C)(=N)=O)CC3)c2cc1F (stereo not drawn) [Compound 43, 6-fluoro-7-methoxy-4-(4-(2-(S-methylsulfonimidoyl)ethyl)piperidin-1-yl)quinoline-3-carbonitrile]",< 3 nM,0.49 nM,3.9 nM,29 nM,,,< 10 nM,,,,,
"COc1ccc2c(OCc3ccc(S(C)(=N)=O)cc3)ccnc2c1 (stereo not drawn) [Compound 75, imino(4-(((7-methoxyquinolin-4-yl)oxy)methyl)phenyl)(methyl)-λ^6-sulfanone]",< 3 nM,0.49 nM,4.4 nM,31 nM,,,< 10 nM,,,,,
"COc1ccc2c(OCc3ccc(S(C)(=N)=O)cc3F)ccnc2c1 (stereo not drawn) [Compound 135, (3-fluoro-4-{[(7-methoxyquinolin-4-yl)oxy]methyl}phenyl)(imino)methyl-λ^6-sulfanone]",< 3 nM,1.4 nM,7.8 nM,110 nM,,,,,,,,
COc1cc2nccc(OCc3ccc(S(C)(=N)=O)cc3)c2cc1F (stereo not drawn) [Compound 136],< 3 nM,0.32 nM,2 nM,29 nM,,,< 10 nM,,,,,
COc1cc2ncnc(N3CCC4(CC3)CCN([S@](C)(=N)=O)C4)c2cc1OC [Compound 54b],,,,,,,< 10 nM,< 3 nM,1.3 nM,7.6 nM,130 nM,
"COc1cccc2c(N3CCC(CCS(C)(=N)=O)CC3)ncnc12 (stereo not drawn) [Compound 72, imino({2-[1-(8-methoxyquinazolin-4-yl)piperidin-4-yl]ethyl})methyl-λ^6-sulfanone]",3 to 300 nM,18 nM,120 nM,430 nM,,,,,,,,10 to 1000 nM
"COc1ccc2c(N3CCC4(CC3)CN(S(C)(=N)=O)C4)ccnc2c1 (stereo not drawn) [Compound 53, 7-methoxy-4-(2-(S-methylsulfonimidoyl)-2,7-diazaspiro[3.5]nonan-7-yl)quinoline]",3 to 300 nM,4.6 nM,44 nM,160 nM,,,,,,,,10 to 1000 nM
"COc1cc2nncc(Oc3ccc(S(C)(=N)=O)cc3)c2cc1OC (stereo not drawn) [Compound 127, {4-[(6,7-dimethoxycinnolin-4-yl)oxy]phenyl}(imino)methyl-λ^6-sulfanone]",3 to 300 nM,5 nM,30 nM,380 nM,,,,,,,,10 to 1000 nM
"CCS(=N)(=O)c1ccc(Oc2ccnc3cc(OC)ccc23)cc1 (stereo not drawn) [Compound 103, ethyl(imino)(4-((7-methoxyquinolin-4-yl)oxy)phenyl)-λ^6-sulfanone]",< 3 nM,1.3 nM,9 nM,49 nM,,,< 10 nM,,,,,
"COc1cc2nccc(N3CCC(CCS(C)(=N)=O)CC3)c2cc1Cl (stereo not drawn) [Compound 141, {2-[1-(6-chloro-7-methoxyquinolin-4-yl)piperidin-4-yl]ethyl}(imino)methyl-λ^6-sulfanone]",< 3 nM,0.25 nM,2.1 nM,16 nM,,,,,,,,
COc1ccc2c(Oc3ccc([S@@](=N)(=O)C4CC4)cc3)ccnc2c1 [Compound 60a],,,,,,,< 10 nM,< 3 nM,0.099 nM,1.3 nM,11 nM,
COc1cc2ncnc(N3CCC4(CC3)CCN([S@@](C)(=N)=O)C4)c2cc1OC [Compound 54a],,,,,,,< 10 nM,< 3 nM,0.0075 nM,0.34 nM,0.32 nM,
"COc1cc2nccc(OCc3ccc(S(C)(=N)=O)cc3)c2cc1OC (stereo not drawn) [Compound 138, (4-{[(6,7-dimethoxyquinolin-4-yl)oxy]methyl}phenyl)(imino)methyl-λ^6-sulfanone]",3 to 300 nM,4.6 nM,37 nM,140 nM,,,,,,,,10 to 1000 nM
"COc1cc2ncc(C#N)c(Oc3ccc(S(C)(=N)=O)cc3)c2cc1F (stereo not drawn) [Compound 44, 6-fluoro-7-methoxy-4-(4-(S-methylsulfonimidoyl)phenoxy)quinoline-3-carbonitrile]",< 3 nM,1.6 nM,15 nM,110 nM,,,,,,,,10 to 1000 nM

# Source: US11780849B2, “Imino sulfanone inhibitors of ENPP1” (Volastra Therapeutics, Inc., priority 2020, dated 2023)
